Measurements: patent US10150757B2, “Quinazolinone derivatives as PARP inhibitors” (Janssen Pharmaceutica NV, priority 2004, dated 2018)

What follows are compounds tested against PARP-1 enzyme (Homo sapiens, UniProt P09874) (assay: In vitro scintillation proximity assay (SPA) for PARP-1 inhibitory activity). Details: [3H]-NAD+, biotinylated histones, nicked DNA; read-out: in vitro SPA assay PARP-1 pIC50 (converted).
Type: biochemical
Description: In Vitro Scintillation Proximity Assay (SPA) for PARP-1 Inhibitory Activity
Compounds of the present invention were tested in an in vitro assay based on SPA technology (proprietary to Amersham Pharmacia Biotech).
In principle, the assay relies upon the well established SPA technology for the detection of poly(ADP-ribosyl)ation of biotinylated target proteins, i.e histones. This ribosylation is induced using nicked DNA activated PARP-1 enzyme and [^3H]-nicotinamide adenine dinucleotide ([^3H]-NAD^+) as ADP-ribosyl donor.
As inducer of PARP-1 enzyme activity, nicked DNA was prepared. For this, 25 mg of DNA (supplier: Sigma) was dissolved in 25 ml DNAse buffer (10 mM Tris-HCl, pH 7.4; 0.5 mg/ml Bovine Serum Albumine (BSA); 5 mM MgCl2.6H2O and 1 mM KCl) to which 50 μl DNAse solution (1 mg/ml in 0.15M NaCl) was added. After an incubation of 90 min. at 37° C., the reaction was terminated by adding 1.45 g NaCl, followed by a further incubation at 58° C. for 15 min. The reaction mixture was cooled on ice and dialysed at 4° C. for respectively 1.5 and 2 hours against 1.5 l of 0.2M KCl, and twice against 1.5 l of 0.01M KCl for 1.5 and 2 h respectively. The mixture was aliquoted and stored at −20° C. Histones (1 mg/ml, type II-A, supplier: Sigma) were biotinylated using the biotinylation kit of Amersham and stored aliquoted at −20° C. A stock solution of 100 mg/ml SPA poly(vinyl toluene) (PVT) beads (supplier: Amersham) was made in PBS. A stock solution of [^3H]-NAD^+ was made by adding 120 μl of [^3H]-NAD^+ (0.1 mCi/ml, supplier: NEN) to 6 ml incubation buffer (50 mM Tris/HCl, pH 8; 0.2 mM DTT; 4 mM MgCl2). A solution of 4 mM NAD^+ (supplier: Roche) was made in incubation buffer (from a 100 mM stock solution in water stored at −20° C.). The PARP-1 enzyme was produced using art known techniques, i.e. cloning and expression of the protein starting from human liver cDNA. Information concerning the used protein sequence of the PARP-1 enzyme including literature references can be found in the Swiss-Prot database under primary accession number P09874. Biotinylated histones and PVT-SPA beads were mixed and pre-incubated for 30 min. at room temperature. PARP-1 enzyme (concentration was lot dependent) was mixed with the nicked DNA and the mixture was pre-incubated for 30 min. at 4° C. Equal parts of this histones/PVT-SPA beads solution and PARP-1 enzyme/DNA solution were mixed and 75 μl of this mixture together with 1 μl of compound in DMSO and 25 μl of [^3H]-NAD^+ was added per well into a 96-well microtiterplate. The final concentrations in the incubation mixture were 2 μg/ml for the biotinylated histones, 2 mg/ml for the PVT-SPA beads, 2 μg/ml for the nicked DNA and between 5-10 μg/ml for the PARP-1 enzyme. After incubation of the mixture for 15 min. at room temperature, the reaction was terminated by adding 100 μl of 4 mM NAD^+ in incubation buffer (final concentration 2 mM) and plates were mixed.
The beads were allowed to sediment for at least 15 min. and plates transferred to a TopCountNXT™ (Packard) for scintillation counting, values were expressed as counts per minute (cpm). For each experiment, controls (containing PARP-1 enzyme and DMSO without compound), a blank incubation (containing DMSO but no PARP-1 enzyme or compound) and samples (containing PARP-1 enzyme and compound dissolved in DMSO) were run in parallel. All compounds tested were dissolved and eventually further diluted in DMSO. In first instance, compounds were tested at a concentration of 10^−5M. […] In each test, the blank value was subtracted from both the control and the sample values. The control sample represented maximal PARP-1 enzyme activity. For each sample, the amount of cpm was expressed as a percentage of the mean cpm value of the controls. […] Herein the effects of test compounds are expressed as pIC50 (the negative log value of the IC50-value).

Sequence of PARP-1 enzyme (P09874 whole entry): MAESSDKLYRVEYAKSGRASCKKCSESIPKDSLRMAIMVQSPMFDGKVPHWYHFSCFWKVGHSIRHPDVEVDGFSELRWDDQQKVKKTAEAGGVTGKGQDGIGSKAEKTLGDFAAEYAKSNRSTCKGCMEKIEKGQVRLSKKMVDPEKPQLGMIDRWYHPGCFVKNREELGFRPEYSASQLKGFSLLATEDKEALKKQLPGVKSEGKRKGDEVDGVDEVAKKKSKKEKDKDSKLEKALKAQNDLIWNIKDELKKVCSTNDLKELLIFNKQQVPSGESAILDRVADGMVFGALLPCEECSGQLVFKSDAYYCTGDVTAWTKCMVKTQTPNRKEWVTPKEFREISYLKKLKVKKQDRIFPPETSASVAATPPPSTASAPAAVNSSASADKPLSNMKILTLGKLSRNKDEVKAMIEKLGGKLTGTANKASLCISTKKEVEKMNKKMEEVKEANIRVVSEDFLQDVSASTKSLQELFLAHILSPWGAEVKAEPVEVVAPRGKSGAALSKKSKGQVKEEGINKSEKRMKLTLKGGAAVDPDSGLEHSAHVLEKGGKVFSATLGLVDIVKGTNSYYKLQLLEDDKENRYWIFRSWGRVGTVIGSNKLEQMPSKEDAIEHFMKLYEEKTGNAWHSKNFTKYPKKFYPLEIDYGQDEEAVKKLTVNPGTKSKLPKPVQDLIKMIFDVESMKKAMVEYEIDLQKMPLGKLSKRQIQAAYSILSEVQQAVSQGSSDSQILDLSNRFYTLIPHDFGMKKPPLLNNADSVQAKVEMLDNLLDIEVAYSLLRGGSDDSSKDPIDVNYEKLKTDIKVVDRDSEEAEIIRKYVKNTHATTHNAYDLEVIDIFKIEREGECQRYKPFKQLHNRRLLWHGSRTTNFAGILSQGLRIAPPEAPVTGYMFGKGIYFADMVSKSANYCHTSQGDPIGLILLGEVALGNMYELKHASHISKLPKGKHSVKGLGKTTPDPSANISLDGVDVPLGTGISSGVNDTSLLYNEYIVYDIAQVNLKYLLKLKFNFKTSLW

**Q.** O=c1[nH]c(NCCN2CCN(c3n[nH]c4ccccc34)CC2)nc2ccc(Cl)cc12 [Compound 1] was tested. Which IC50 did it give?
**A.** 7.76 nM

**Q.** With O=c1[nH]c(NCCCN2CCC(O)(c3ccc(Cl)cc3)CC2)nc2ccccc12 [Compound 2] as the compound, how does the IC50 read?
**A.** 133 nM

**Q.** With CCc1cc2cc(CN3CCN(CCNc4nc5ccccc5c(=O)[nH]4)CC3)ccc2nc1OC [Compound 3] as the compound, how does the IC50 read?
**A.** 535 nM

**Q.** How did the IC50 turn out when CC1(C)Cc2c(N)c(Cl)cc(C(=O)NC3CCN(CCCNc4nc(O)c5ccccc5n4)CC3)c2O1 [Compound 4] was run?
**A.** 718 nM

**Q.** For CC1(C)Cc2c(N)c(Cl)cc(C(=O)NC3CCN(CCCCNc4nc(O)c5ccccc5n4)CC3)c2O1 [Compound 5], which IC50 is on record?
**A.** 638 nM

**Q.** CO[C@@H]1CN(CCCNc2nc(O)c3ccccc3n2)CC[C@@H]1NC(=O)c1cc(Cl)c(N)c2c1OCCC2 [Compound 6] was tested. Which IC50 did it give?
**A.** 387 nM

**Q.** How did the IC50 turn out when Nc1c(Cl)cc(C(=O)OCC2CCN(CCNc3nc4ccccc4c(=O)[nH]3)CC2)c2c1OCCO2 [Compound 7] was run?
**A.** 592 nM

**Q.** Which IC50 does the source give for CO[C@@H]1CN(CCCNc2nc(O)c3ccccc3n2)CCN1NC(=O)c1cc(Cl)c(N)c2c1OC(C)(C)C2 [Compound 8] here?
**A.** 535 nM

**Q.** For CO[C@H]1CN(CCCNc2nc3ccccc3c(=O)[nH]2)CC[C@H]1NC(=O)c1cc(Cl)cc2c1OC(C)(C)C2 [Compound 18], which IC50 is on record?
**A.** 847 nM

**Q.** O=c1[nH]c(NCCCN2CCC(c3c[nH]c4ccccc34)CC2)nc2ccccc12 [Compound 20] was tested. Which IC50 did it give?
**A.** 675 nM

**Q.** How did the IC50 turn out when O=c1[nH]c(NCCN2CCC(c3n[nH]c4cc(F)ccc34)CC2)nc2ccccc12 [Compound 21] was run?
**A.** 25.5 nM

**Q.** How did the IC50 turn out when O=c1[nH]c(NCCCN2CCN(c3n[nH]c4ccccc34)CC2)nc2ccccc12 [Compound 22] was run?
**A.** 46.3 nM

**Q.** With O=C(NC1CCN(CCCNc2nc3ccccc3c(=O)[nH]2)CC1)c1ccccc1 [Compound 23] as the compound, how does the IC50 read?
**A.** 687 nM

**Q.** How did the IC50 turn out when O=c1[nH]c(NCCCN2CCN(c3nsc4ccccc34)CC2)nc2ccccc12 [Compound 24] was run?
**A.** 785 nM

**Q.** Which IC50 does the source give for O=c1[nH]c(NCCCN2CCC(c3n[nH]c4cc(F)ccc34)CC2)nc2ccccc12 [Compound 25] here?
**A.** 190 nM

**Q.** For O=c1[nH]c(NCCCN2CCC(c3noc4cc(F)ccc34)CC2)nc2ccccc12 [Compound 26], which IC50 is on record?
**A.** 425 nM

**Q.** For O=c1[nH]c(NCCCN2CCN(c3n[nH]c4cc(F)ccc34)CC2)nc2ccccc12 [Compound 27], which IC50 is on record?
**A.** 44.4 nM

**Q.** Which IC50 does the source give for CCCCn1cc(C2CCN(CCCNc3nc4ccccc4c(=O)[nH]3)CC2)c2ccccc21 [Compound 28] here?
**A.** 1490 nM

**Q.** How did the IC50 turn out when O=c1[nH]c(NCCCN2CCC(n3c(=O)[nH]c4ccccc43)CC2)nc2ccccc12 [Compound 29] was run?
**A.** 785 nM

**Q.** With O=c1[nH]c(NCCN2CCC(Nc3nc4ccccc4c(=O)[nH]3)CC2)nc2ccccc12 [Compound 30] as the compound, how does the IC50 read?
**A.** 32.3 nM

**Q.** For O=c1[nH]c(NCCN2CCC(c3n[nH]c4cc(F)ccc34)CC2)nc2cc(Cl)ccc12 [Compound 31], which IC50 is on record?
**A.** 39.4 nM

**Q.** Which IC50 does the source give for O=c1[nH]c(NCCN2CCC(Nc3n[nH]c(=O)c4ccccc34)CC2)nc2ccccc12 [Compound 33] here?
**A.** 34.8 nM

**Q.** For O=c1[nH]c(NCCN2CCC(c3n[nH]c4cc(F)ccc34)CC2)nc2ccc(Cl)cc12 [Compound 36], which IC50 is on record?
**A.** 10.8 nM

**Q.** Cc1ccc2nc(NCCN3CCC(c4n[nH]c5cc(F)ccc45)CC3)[nH]c(=O)c2c1 [Compound 37] was tested. Which IC50 did it give?
**A.** 15.3 nM

**Q.** O=c1[nH]c(NCCN2CCN(c3nc4ccccc4c(=O)[nH]3)CC2)nc2ccccc12 [Compound 38] was tested. Which IC50 did it give?
**A.** 424 nM

**Q.** With Cc1cccc2nc(NCCN3CCN(c4n[nH]c5ccccc45)CC3)[nH]c(=O)c12 [Compound 39] as the compound, how does the IC50 read?
**A.** 9.93 nM

**Q.** For O=c1nc(NCCCN2CCC(Nc3nccc4ccccc34)CC2)[nH]c2ccccc12 [Compound 40], which IC50 is on record?
**A.** 322 nM

**Q.** O=c1[nH]c(NCCN2CCN(c3n[nH]c4cc(F)ccc34)CC2)nc2ccccc12 [Compound 41] was tested. Which IC50 did it give?
**A.** 44.5 nM

**Q.** How did the IC50 turn out when O=c1[nH]c(NCCCN2CCC(Nc3cccc4ccccc34)CC2)nc2ccccc12 [Compound 42] was run?
**A.** 841 nM

**Q.** Which IC50 does the source give for Cc1ccc2nc(NCCN3CCN(c4n[nH]c5ccccc45)CC3)[nH]c(=O)c2c1 [Compound 43] here?
**A.** 12.4 nM

**Q.** How did the IC50 turn out when O=c1[nH]c(NCCN2CCN(c3n[nH]c4ccccc34)CC2)nc2cc(Cl)ccc12 [Compound 44] was run?
**A.** 29.3 nM

**Q.** Nc1c(Cl)cc(C(=O)NC2CCN(CCCNc3nc(O)c4ccccc4n3)CC2)c2c1CCO2 [Compound 45] was tested. Which IC50 did it give?
**A.** 225 nM

**Q.** For O=C(c1ccc(F)cc1)C1CCN(CCNc2nc3ccccc3c(=O)[nH]2)CC1 [Compound 46], which IC50 is on record?
**A.** 231 nM
